# “Also recorded” adds a separate entry of the source. Where two headings read alike, the source gives them in different places.
# Columns and labels:
# SARS-CoV-2 [1] = format: cell-based; settings: for sensitivity of SARS-CoV-2 infection to inhibitor: three of the lung tumor lines from John Minna, representative data
# SARS-CoV-2 [2] = format: cell-based, Green African Monkey
# [3] = tested on: VSV/SARS-CoV-2 spike pseudovirion; format: cell-based
# SARS-CoV-2 [4] = format: cell-based; settings: MOI=0.1, 24 h, inhibitor added prior to infection
# [5] = tested on: VSV/SARS-CoV-2 spike pseudovirions; format: cell-based, Green African Monkey
# SARS-CoV-2 [6] = test: BGBC020 and ACCORD-2 studies taken together; format: in vivo, human; settings: across both BGBC020 and ACCORD-2 studies; SoC 10
# SARS-CoV-2 [7] = settings: Vero E6 and CaIU3, Dittmar et al; cited from earlier work
# Ebola virus = settings: one of only two of sixty compounds; cited from earlier work
# SARS-CoV-2 [8] = test: Phase 2 clinical trial BGBC020 (India, South Africa), hospitalised COVID-19 patients, bemcentinib plus SoC versus SoC
# SARS-CoV-2 [9] = format: cell-based; settings: A549-hACE2 and Vero E6 cells, 1 uM, 24 h, preliminary
# [10] = tested on: Mouse Hepatitis Virus (MHV) strain A59; test: Mouse hepatitis virus (MHV A59) infection of murine bone marrow-derived macrophages, virus load by qRT-PCR; format: cell-based; settings: for MHV virus load in WT mBMDM: WT cells, pretreated and kept on cells
# MHV = test: MHV-infected C57BL/6 mice treated by gavage
# SARS-CoV-2 [11] = test: SARS-CoV-2 binding on Vero E6 cells (qRT-PCR of bound viral RNA); format: cell-based, Green African Monkey; settings: MOI=5, 15° C., 60 m
# Method: FIG. 9 • Evaluation of SARS-CoV-2 binding on Vero E6 cells. Cells were incubated with virus (MOI=5) and treatments noted at 15° C. for 60 m. Subsequently, some cells were treated with trypsin to remove bound virus. All cells were washed extensively to remove unbound virus and cells were extracted for RNA. Viral load was determined and normalized for the host gene GAPDH. This is one of 3 different experiments yielding similar results.
# In an additional set of studies with Vero E6 cells, it was evaluated whether bemcentinib or PS liposomes blocked VT SARS-CoV-2 binding. Using an MOI of 5, SARS-CoV-2 was incubated at 15° C. for 60 m with Vero E6 cells in the presence of bemcentinib or PS liposomes. Phosphatidylcholine (PC) liposomes were incubated with the cells as a control for PS-mediated viral competition; trypsin was added after virus binding to some cells as a negative control. Cells were placed in Trizol and virus binding was assessed by qRT-PCR detection of viral RNA genomes as compared to the level of a housekeeping gen mRNA, GAPDH. […] Similar studies in Vero E6 cells and other more relevant lung cells will be performed to assess virus internalization following virus binding.
# SARS-CoV-2 [12] = test: Phase 2 clinical trial ACCORD-2 (UK), hospitalised COVID-19 patients
# SARS-CoV-2 [13] = test: SARS-CoV-2 salivary viral load (quantitative PCR) in BGBC020 patients; format: in vivo
# SARS-CoV-2 [14] = test: Clinical case report: COVID-19 in a lung cancer patient on bemcentinib+erlotinib; format: in vivo
# SARS-CoV-2 [15] = format: cell-based
# [16] = one high-risk patient on bemcentinib+erlotinib
structure (smiles),measurement,setting,value
CC(C)C[C@H](NC(=O)[C@H]1O[C@@H]1C(=O)O)C(=O)NCCCCN=C(N)N [E64],sensitivity of SARS-CoV-2 infection to inhibitor,SARS-CoV-2 [1],sensitive
same,WT SARS-CoV-2 infection of Vero E6 cells (viral load),SARS-CoV-2 [2],blocked infection
same,hACE2-dependent pseudovirion infection (luminescence),[3],effectively blocked infection
"Nc1nc(Nc2ccc3c(c2)CC[C@@H](N2CCCC2)CC3)nn1-c1cc2c(nn1)-c1ccccc1CCC2 [bemcentinib, 1-(6,7-dihydro-5H-benzo[6,7]cyclohepta[1,2-c]pyridazin-3-yl)-N^3-((7-(S)-pyrrolidin-1-yl)-6,7,8,9-tetrahydro-5H-benzo[7]annulene-2-yl)-1H-1,2,4-triazole-3,5-diamine]",SARS-CoV-2 virus load in Huh7 cells,SARS-CoV-2 [4],inhibited virus infection in a dose dependent manner
same,SARS-CoV-2 spike dependent pseudovirion infection of Vero E6 cells,[5],highly effective; also recorded: inhibited pseudovirus infection
same,COVID-19 related deaths,SARS-CoV-2 [6],3
same,SARS-CoV-2 infection in both cell types,SARS-CoV-2 [7],reported to inhibit
same,effect against Ebola infection in animal models,Ebola virus,some protective/therapeutic effect
same,QTcF prolongation >501 msec,SARS-CoV-2 [8]; BGBC020,No QTcF prolongation
same,SUSAR,SARS-CoV-2 [8]; BGBC020,No SUSAR
same,"Time to NEWS2 score ≤2, Hazard ratio (95% CI)","SARS-CoV-2 [8]; BGBC020 interim results, secondary endpoint","1.10 (0.70, 1.73)"
same,Mortality,"SARS-CoV-2 [8]; by D29, of 58 patients, SoC 4 of 57",2 patients
same,"worsening by 1, 2 or 3 points on WHO scale","SARS-CoV-2 [8]; days 2, 8, 15 and 29, versus standard of care alone",lower proportion of individual patients experiencing worsening
same,SAE,"SARS-CoV-2 [8]; of 58 patients, SoC 4",5 patients
same,NEWS2 normalisation,"SARS-CoV-2 [8]; versus SoC, interim",favours bemcentinib arm within week 1
same,time to WHO OCS improvement or discharge (primary endpoint),"SARS-CoV-2 [8]; versus SoC, particularly with higher baseline CRP, interim",Favours the bemcentinib arm
same,Sensitive to Bemcentinib,SARS-CoV-2 [1]; lung line 820,Yes
same,Sensitive to Bemcentinib,SARS-CoV-2 [1]; lung line CalU3,No
same,Sensitive to Bemcentinib,SARS-CoV-2 [1]; lung line H322,Yes
same,Sensitive to Bemcentinib,SARS-CoV-2 [1]; lung line H1650,Yes
same,Sensitive to Bemcentinib,SARS-CoV-2 [1]; lung line H1819,No
same,Sensitive to Bemcentinib,SARS-CoV-2 [1]; lung line H3255,No
same,Sensitive to Bemcentinib,SARS-CoV-2 [1]; lung line HCC1944,Mixed findings
same,Sensitive to Bemcentinib,SARS-CoV-2 [1]; lung line HCC2302,Yes
same,Sensitive to Bemcentinib,SARS-CoV-2 [1]; lung line HCC4207,Mixed findings
same,Sensitive to Bemcentinib,SARS-CoV-2 [1]; lung line HCC4256,No
same,Sensitive to Bemcentinib,SARS-CoV-2 [1]; lung line HSAEC13,Mixed findings
same,sensitivity of SARS-CoV-2 infection to inhibitor,SARS-CoV-2 [1],sensitive
same,SARS-CoV-2 viral transcripts (RNAseq),SARS-CoV-2 [9],dramatically reduced
same,SARS-CoV-2 viral transcripts (RNAseq),SARS-CoV-2 [9]; listed as Bemcentinib,significantly reduced
same,"MHV infection of mBMDM (MHV spike gene, qRT-PCR)","[10]; 1 μM, 24 h, p=0.034 in one-way ANOVA",significantly reducing infection
same,reduction of MHV virus load in ISG15 (KO) and USP18C61A/C61A mBMDM,"[10]; 1 μM, 24 h, trend to lower virus load",not statistically significant; also recorded: did not reach statistical significance
same,inhibitory effect on virus infection,"[10]; BMDM from ISG15-null and USP18C61A/C61A mice, compared with wild type",more variable and in general reduced
same,viral-induced syncytia formation,[10]; MHV-infected BMDM cultures,reduced
same,MHV virus load in WT mBMDM,"[10]; 1 μM, 24 h",significantly reduced MHV infection
same,MHV virus load in WT mBMDM,"[10]; 1 μM, 24 h, listed as Bemcentinib",reduces virus load
same,"MHV infection of mBMDM (MHV spike gene, qRT-PCR)","[10]; increasing concentrations, MOI 0.01, 24 h",inhibitory trend; also recorded: did inhibit MHV infection
same,"MHV infection of mBMDM (MHV spike gene, qRT-PCR)","[10]; increasing concentrations, MOI 0.01, 24 h, listed as Bemcentinib",inhibits MHV infection
same,coronavirus load in cells,"[10]; primary murine BMDM, MHV, 1 μM, 20 h following infection, preliminary",reduces coronavirus load
same,virus load in liver,"MHV; C57BL/6 mice, 50,000 iu MHV, versus pooled untreated and vehicle only groups, Student's t test",significantly reduced virus load
same,type I interferon responses (IFN related gene expression),"MHV; MHV-infected C57BL/6 mice, day 3, spleen and liver RNA",enhancing type I interferon responses
same,SARS-CoV-2 binding to Vero E6 cells,SARS-CoV-2 [11],no effect
same,Laboratory TRAE (haem or chemistry),SARS-CoV-2 [12]; ACCORD-2,no TRAE haem or chemistry
same,QTcF prolongation,SARS-CoV-2 [12]; ACCORD-2,No reported QTcF prolongation
same,Mortality,"SARS-CoV-2 [12]; by D29, of 30 patients, SoC 6 of 30",1 patients
same,patients with salivary viral load below LLOQ (500 copies/mL),"SARS-CoV-2 [13]; absence of another antiviral, day 8 (8 of 12), SoC 37.5%",approximately 66%
same,patients with salivary viral load below LLOQ (500 copies/mL),"SARS-CoV-2 [13]; absence of another antiviral, day 11 (3 of 3), SoC 60%",100%
same,rate of viral clearance,"SARS-CoV-2 [13]; day 11, all patients, SoC 57%",100%
same,patients with salivary viral load below LLOQ (500 copies/mL),"SARS-CoV-2 [13]; presence of another antiviral (remdesivir or favipiravir), day 8 (9 of 11), SoC 54%",approximately 82%
same,patients with salivary viral load below LLOQ (500 copies/mL),"SARS-CoV-2 [13]; presence of another antiviral (remdesivir or favipiravir), day 11 (9 of 9), SoC 56%",100%
same,COVID-19 disease course,SARS-CoV-2 [14]; [16],7 days
same,course of COVID-19,SARS-CoV-2 [14]; [16],very mild
same,transmission to co-habiting partner,SARS-CoV-2 [14]; one patient on bemcentinib+erlotinib,lack of transmission
same,SARS-CoV-2 infection of CalU3 cells (viral load),SARS-CoV-2 [15],did not inhibit
CN(C)C(=O)COC(=O)Cc1ccc(OC(=O)c2ccc(NC(=N)N)cc2)cc1 [camostat],hACE2-dependent pseudovirion infection (luminescence),[3],"blocked infection, but to a lesser extent"

# Source: US20230250169A1, “AXL Inhibitors for Antiviral Therapy” (BERGENBIO ASA, priority 2020, published 2023)
